Laboratory results: patent US9617286B2, “Fungicide N-[(trisubstitutedsilyl)methyl]-carboxamide derivatives” (BAYER INTELLECTUAL PROPERTY GMBH, priority 2011, dated 2017)

What was measured:
[1] = test system: Sphaerotheca fuliginea; test: In vivo preventive test on Sphaerotheca fuliginea (powdery mildew on cucurbits); conditions: gherkin plants, preventive spray, 500 ppm of active ingredient, grading 12 days after contamination
Description: Gherkin plants (“Vert petit de Paris” variety), sown in starter cups on a 50/50 peat soil-pozzolana substrate and grown at 24° C., are treated at the Z11 cotyledon stage by spraying with the active ingredient prepared as described above. Plants, used as controls, are treated with the mixture of acetone/tween/DMSO/water not containing the active material. After 24 hours, the plants are contaminated by spraying the cotyledons with an aqueous suspension of Sphaerotheca fuliginea spores (100 000 spores per mL). The spores are collected from infected plants. The contaminated gherkin plants are incubated at about 20° C. and at 70-80% relative humidity. Grading (% of efficacy) is carried out 12 days after the contamination, in comparison with the control plants.

[2] = test system: Pyrenophora teres; test: In vivo preventive test on Pyrenophora teres (barley); conditions: preventive spray (DMF/alkylaryl polyglycol ether), 500 ppm of active ingredient, evaluated 7-9 days after inoculation
Description: (§1) Solvent: 49 parts by weight of N,N-dimethylformamide Emulsifier: 1 part by weight of alkylaryl polyglycol ether To produce a suitable preparation of active compound, 1 part by weight of active compound is mixed with the stated amounts of solvent and emulsifier, and the concentrate is diluted with water to the desired concentration. To test for preventive activity, young plants are sprayed with the preparation of active compound at the stated rate of application. One day after this treatment, the plants are inoculated with an aqueous spore suspension of Pyrenophora teres. The plants remain for 48 hours in an incubation cabinet at 22° C. and a relative atmospheric humidity of 100%. Then the plants are placed in a greenhouse at a temperature of approximately 20° C. and a relative atmospheric humidity of approximately 80%.

[3] = test system: Septoria tritici; test: In vivo preventive test on Septoria tritici (wheat); conditions: preventive spray, 500 ppm of active ingredient, grading 24 days after contamination
Description: Wheat plants (“Scipion” variety), sown in starter cups on a 50/50 peat soil pozzolana substrate and grown at 22° C., are treated at the 1 leaf stage (10 cm height) by spraying with the active ingredient prepared as described above. Plants, used as controls, are treated with the mixture of acetone/tween/DMSO/water not containing the active material. After 24 hours, the plants are contaminated by spraying the leaves with an aqueous suspension of cryopreserved Septoria tritici spores (500 000 spores per mL). The contaminated wheat plants are incubated for 72 hours at 18° C. and at 100% relative humidity, and then for 21 days at 90% relative humidity. Grading (% of efficacy) is carried out 24 days after the contamination, in comparison with the control plants.

[4] = test system: Alternaria brassicae; test: In vivo preventive test on Alternaria brassicae (leaf spot on radish); conditions: preventive spray, 500 ppm of active ingredient, grading 6 days after contamination
Description: Radish plants (“Pernod Clair” variety), sown in starter cups on a 50/50 peat soil pozzolana substrate and grown at 17° C., are treated at the cotyledon stage by spraying with the active ingredient prepared as described above. Plants, used as controls, are treated with the mixture of acetone/tween/DMSO/water not containing the active material. After 24 hours, the plants are contaminated by spraying the cotyledons with an aqueous suspension of Alternaria brassicae spores (50 000 spores per mL). The spores are collected from a 15-day-old culture. The contaminated radish plants are incubated at 20° C. and at 100% relative humidity. Grading (% of efficacy) is carried out 6 days after the contamination, in comparison with the control plants.

[5] = log P by HPLC on reversed-phase column (C 18), EEC Directive 79/831 Annex V.A8; format: physicochemical; conditions: 40° C., 0.1% aqueous formic acid and acetonitrile, linear gradient 10% to 90% acetonitrile
Description: In table 1, the log P values were determined in accordance with EEC Directive 79/831 Annex V.A8 by HPLC (High Performance Liquid Chromatography) on a reversed-phase column (C 18), using the method described below:
Temperature: 40° C.; Mobile phases: 0.1% aqueous formic acid and acetonitrile; linear gradient from 10% acetonitrile to 90% acetonitrile.
Calibration was carried out using unbranched alkan-2-ones (comprising 3 to 16 carbon atoms) with known log P values (determination of the log P values by the retention times using linear interpolation between two successive alkanones). lambda-max-values were determined using UV-spectra from 200 nm to 400 nm and the peak values of the chromatographic signals.

[6] = test system: Puccinia recondita; test: In vivo preventive test on Puccinia recondita (brown rust on wheat); conditions: preventive spray, 500 ppm of active ingredient, grading 12 days after contamination
Description: Wheat plants (“Scipion” variety), sown in starter cups on a 50/50 peat soil pozzolana substrate and grown at 22° C., are treated at the 1 leaf stage (10 cm height) by spraying with the active ingredient prepared as described above. Plants, used as controls, are treated with the mixture of acetone/tween/DMSO/water not containing the active material. After 24 hours, the plants are contaminated by spraying the leaves with an aqueous suspension of Puccinia recondita spores (100 000 spores per mL). The spores are collected from an infected plant and are suspended in water containing 2.5 mL/L of Tween 80 at 10%. The contaminated wheat plants are incubated for 24 hours at 20° C. and at 100% relative humidity, and then for 10 days at 20° C. and at 70-80% relative humidity. Grading (% of efficacy) is carried out 12 days after the contamination, in comparison with the control plants.

[7] = test system: Alternaria solani; test: In vivo preventive test on Alternaria solani (tomato); conditions: preventive spray, 500 ppm of active ingredient, evaluated 7 days after inoculation
Description: Solvent: 49 parts by weight of N,N-dimethylformamide Emulsifier: 1 part by weight of alkylaryl polyglycol ether To produce a suitable preparation of active compound, 1 part by weight of active compound is mixed with the stated amounts of solvent and emulsifier, and the concentrate is diluted with water to the desired concentration. To test for preventive activity, young plants are sprayed with the preparation of active compound at the stated rate of application. One day after this treatment, the plants are inoculated with an aqueous spore suspension of Alternaria solani. The plants remain for one day in an incubation cabinet at approximately 22° C. and a relative atmospheric humidity of 100%. Then the plants are placed in an incubation cabinet at approximately 20° C. and a relative atmospheric humidity of 96%.

[8] = test system: Leptosphaeria nodorum; test: In vivo preventive test on Leptosphaeria nodorum (wheat); conditions: preventive spray, 500 ppm of active ingredient, evaluated 7-9 days after inoculation
Description: as §1, with “sprayed with a preparation of” for “sprayed with the preparation of”, “suspension of Leptosphaeria nodorum. The plants” for “suspension of Pyrenophora teres. The plants”, “of approximately 22° C. and” for “of approximately 20° C. and”, “of approximately 90%.” for “of approximately 80%.”

## C[Si](C)(CN(C(=O)c1cccnc1C(F)F)C1CC1)c1ccccc1C(F)(F)F [Example 56]
[1]
  Efficacy: 83%
[2]
  Efficacy: 100%
[3]
  Efficacy: 100%
[4]
  Efficacy: 88%
[5]
  logP: 3.94

## C[Si](C)(CN(C(=O)c1nccnc1C(F)(F)F)C1CC1)c1cc(F)ccc1Cl [Example 49]
[2]
  Efficacy: 97%
[3]
  Efficacy: 100%
[6]
  Efficacy: 88%
[4]
  Efficacy: 75%
[5]
  logP: 4.59

## C[Si](C)(CN(C(=O)c1cccnc1C(F)(F)F)C1CC1)c1ccc(F)cc1Cl [Example 47]
[2]
  Efficacy: 97%
[3]
  Efficacy: 93%
[4]
  Efficacy: 75%
[5]
  logP: 4.41

## Cc1ccccc1[Si](C)(C)CN(C(=O)c1nccnc1C(F)(F)F)C1CC1 [Example 10]
[1]
  Efficacy: 78%
[2]
  Efficacy: 100%
[3]
  Efficacy: 79%
[4]
  Efficacy: 88%
[5]
  logP: 4.41

## C[Si](C)(CNC(=O)c1cccnc1C(F)F)c1cc(Cl)cc(Cl)c1 [Example 63]
[1]
  Efficacy: 71%
[7]
  Efficacy: 95%
[2]
  Efficacy: 95%
[3]
  Efficacy: 96%
[6]
  Efficacy: 97%
[5]
  logP: 3.69

## C[Si](C)(CN(C(=O)c1cccnc1C(F)F)C1CC1)c1ccccc1Cl [Example 28]
[7]
  Efficacy: 89%
[2]
  Efficacy: 100%
[5]
  logP: 3.83

## C[Si](C)(CN(C(=O)c1nccnc1C(F)(F)F)C1CC1)c1cccc2ccccc12 [Example 72]
[7]
  Efficacy: 89%
[2]
  Efficacy: 95%
[8]
  Efficacy: 80%
[5]
  logP: 4.77

## C[Si](C)(CN(C(=O)c1cccnc1C(F)(F)F)C1CC1)c1cc(F)ccc1Cl [Example 48]
[1]
  Efficacy: 98%
[2]
  Efficacy: 97%
[3]
  Efficacy: 93%
[6]
  Efficacy: 88%
[4]
  Efficacy: 75%
[5]
  logP: 4.34

## CC[Si](C)(CN(C(=O)c1nccnc1C(F)(F)F)C1CC1)c1ccccc1Cl (stereo not drawn) [Example 44]
[1]
  Efficacy: 94%
[2]
  Efficacy: 93%
[3]
  Efficacy: 86%
[6]
  Efficacy: 75%
[4]
  Efficacy: 75%
[5]
  logP: 4.95

## C[Si](C)(Cc1cccc(Cl)c1)CN(C(=O)c1cccnc1C(F)F)C1CC1 [Example 104]
[7]
  Efficacy: 90%
[2]
  Efficacy: 80%
[5]
  logP: 4.16

## CCc1ccccc1[Si](C)(C)CN(C(=O)c1cccnc1C(F)(F)F)C1CC1 [Example 20]
[1]
  Efficacy: 100%
[2]
  Efficacy: 100%
[3]
  Efficacy: 93%
[6]
  Efficacy: 88%
[4]
  Efficacy: 75%
[5]
  logP: 4.51

## C[Si](C)(CN(C(=O)c1nccnc1C(F)(F)F)C1CC1)c1ccc(F)cc1Cl [Example 52]
[1]
  Efficacy: 94%
[2]
  Efficacy: 100%
[3]
  Efficacy: 97%
[4]
  Efficacy: 100%
[5]
  logP: 4.67

## C[Si](C)(Cc1ccccc1Cl)CN(C(=O)c1nccnc1C(F)(F)F)C1CC1 [Example 99]
[2]
  Efficacy: 70%
[8]
  Efficacy: 70%
[5]
  logP: 4.82

## Cc1ccccc1[Si](C)(C)CN(C(=O)c1cccnc1C(F)F)C1CC1 [Example 12]
[2]
  Efficacy: 97%
[3]
  Efficacy: 79%
[4]
  Efficacy: 88%
[5]
  logP: 3.73

## C[Si](C)(CN(C(=O)c1cccnc1Cl)C1CC1)c1cc(F)ccc1Cl [Example 50]
[1]
  Efficacy: 98%
[2]
  Efficacy: 97%
[6]
  Efficacy: 75%
[4]
  Efficacy: 75%
[5]
  logP: 3.99

## C[Si](C)(CNC(=O)c1cccnc1C(F)F)c1cccc(Cl)c1 [Example 29]
[7]
  Efficacy: 95%
[2]
  Efficacy: 95%
[5]
  logP: 3.15

## C[Si](C)(Cc1ccc(Cl)cc1Cl)CN(C(=O)c1cccnc1C(F)F)C1CC1 [Example 110]
[7]
  Efficacy: 70%
[2]
  Efficacy: 95%
[5]
  logP: 4.74

## C[Si](C)(CN(C(=O)c1cccnc1C(F)F)C1CC1)c1cccc2ccccc12 [Example 74]
[7]
  Efficacy: 78%
[2]
  Efficacy: 95%
[8]
  Efficacy: 70%
[5]
  logP: 4.04

## C[Si](C)(CN(C(=O)c1cccnc1C(F)(F)F)C1CC1)c1ccsc1 [Example 91]
[7]
  Efficacy: 78%
[2]
  Efficacy: 70%
[5]
  logP: 3.72

## C[Si](C)(CN(C(=O)c1cccnc1C(F)F)C1CC1)c1ccccc1F [Example 16]
[2]
  Efficacy: 100%
[3]
  Efficacy: 71%
[4]
  Efficacy: 95%
[5]
  logP: 3.51

## Cc1ccccc1[Si](C)(C)CN(C(=O)c1cccnc1C(F)(F)F)C1CC1 [Example 11]
[1]
  Efficacy: 94%
[2]
  Efficacy: 97%
[6]
  Efficacy: 88%
[4]
  Efficacy: 88%
[5]
  logP: 4.18

## C[Si](C)(CN(C(=O)c1cccnc1C(F)F)C1CC1)c1ccsc1 [Example 87]
[7]
  Efficacy: 88%
[2]
  Efficacy: 100%
[5]
  logP: 3.27

## C[Si](C)(CN(C(=O)c1cccnc1C(F)(F)F)C1CC1)c1ccccc1 [Example 8]
[2]
  Efficacy: 100%
[3]
  Efficacy: 100%
[4]
  Efficacy: 88%
[5]
  logP: 3.89

## CC[Si](C)(CN(C(=O)c1cccnc1C(F)F)C1CC1)c1ccccc1Cl (stereo not drawn) [Example 36]
[1]
  Efficacy: 94%
[3]
  Efficacy: 90%
[6]
  Efficacy: 81%
[4]
  Efficacy: 90%
[5]
  logP: 4.21

## C[Si](C)(CN(C(=O)c1cccnc1C(F)F)C1CC1)c1ccccc1 [Example 5]
[1]
  Efficacy: 89%
[3]
  Efficacy: 80%
[4]
  Efficacy: 96%
[5]
  logP: 3.44

## C[Si](C)(Cc1cc(Cl)cc(Cl)c1)CN(C(=O)c1cccnc1C(F)F)C1CC1 [Example 117]
[7]
  Efficacy: 75%
[2]
  Efficacy: 90%
[5]
  logP: 4.77
